Measured values reported in patent publication US20250084040A1, “SUBSTITUTED HETEROCYCLES AS c-MYC TARGETING AGENTS” (Northwestern University, priority 2018, published 2025).

Test system: NCI 60 cell panel
Experiment: NCI 60 Cell One-Dose Screen
Type: cell-based, human
Conditions: 1.00E−5 Molar
Method: General Description. As of early 2007 all compounds submitted to the NCI 60 Cell screen are tested initially at a single high dose (10^-5 M) in the full NCI 60 cell panel. Only compounds which satisfy pre-determined threshold inhibition criteria in a minimum number of cell lines will progress to the full 5-dose assay. The threshold inhibition criteria for progression to the 5-dose screen was selected to efficiently capture compounds with anti-proliferative activity based on careful analysis of historical DTP screening data. The threshold criteria may be updated as additional data becomes available.
Interpretation of One-Dose Data. The One-dose data will be reported as a mean graph of the percent growth of treated cells and will be similar in appearance to mean graphs from the 5-dose assay. The number reported for the One-dose assay is growth relative to the no-drug control, and relative to the time zero number of cells. This allows detection of both growth inhibition (values between 0 and 100) and lethality (values less than 0). This is the same as for the 5-dose assay, described below. For example, a value of 100 means no growth inhibition. A value of 40 would mean 60% growth inhibition. A value of 0 means no net growth over the course of the experiment. A value of −40 would mean 40% lethality. A value of −100 means all cells are dead. Information from the One-dose mean graph is available for COMPARE analysis.
The human tumor cell lines of the cancer screening panel are grown in RPMI 1640 medium containing 5% fetal bovine serum and 2 mM L-glutamine. For a typical screening experiment, cells are inoculated into 96 well microtiter plates in 100 μL at plating densities ranging from 5,000 to 40,000 cells/well depending on the doubling time of individual cell lines. After cell inoculation, the microtiter plates are incubated at […], 5% CO2, 95% air and 100% relative humidity for 24 h prior to addition of experimental drugs.
After 24 h, two plates of each cell line are fixed in situ with TCA, to represent a measurement of the cell population for each cell line at the time of drug addition (Tz). Experimental drugs are solubilized in dimethyl sulfoxide at 400-fold the desired final maximum test concentration and stored frozen prior to use. At the time of drug addition, an aliquot of frozen concentrate is thawed and diluted to twice the desired final maximum test concentration with complete medium containing 50 µg/ml gentamicin. Additional four, 10-fold or ½ log serial dilutions are made to provide a total of five drug concentrations plus control. Aliquots of 100 μl of these different drug dilutions are added to the appropriate microtiter wells already containing 100 μl of medium, resulting in the required final drug concentrations.
Following drug addition, the plates are incubated for an additional 48 h at 37° C., 5% CO2, 95% air, and 100% relative humidity. For adherent cells, the assay is terminated by the addition of cold TCA. Cells are fixed in situ by the gentle addition of 50 μl of cold 50% (w/v) TCA (final concentration, 10% TCA) and incubated for 60 minutes at 4° C. The supernatant is discarded, and the plates are washed five times with tap water and air dried. Sulforhodamine B (SRB) solution (100 μl) at 0.4% (w/v) in 1% acetic acid is added to each well, and plates are incubated for 10 minutes at room temperature. After staining, unbound dye is removed by washing five times with 1% acetic acid and the plates are air dried. Bound stain is subsequently solubilized with 10 mM trizma base, and the absorbance is read on an automated plate reader at a wavelength of 515 nm. For suspension cells, the methodology is the same except that the assay is terminated by fixing settled cells at the bottom of the wells by gently adding 50 μl of 80% TCA (final concentration, 16% TCA). […]

Cn1nc(C(F)(F)F)cc1-c1ccc(OCc2ccc(Cl)cc2)c(-c2ccc(Cl)c(C(F)(F)F)c2)c1O [NSC: D-804955/1]
Growth Percent (786-0 (Renal Cancer)): 28.42% | Growth Percent (A498 (Renal Cancer)): 5.29% | Growth Percent (A549/ATCC (Non-Small Cell Lung Cancer)): 12.83% | Growth Percent (ACHN (Renal Cancer)): 5.21% | Growth Percent (BT-549 (Breast Cancer)): 39.82% | Growth Percent (CAKI-1 (Renal Cancer)): 19.80% | Growth Percent (CCRF-CEM (Leukemia)): 9.89% | Growth Percent (COLO 205 (Colon Cancer)): 24.55% | Growth Percent (DU-145 (Prostate Cancer)): 19.03% | Growth Percent, Delta (Delta of the mean graph): 35.96% | Growth Percent (EKVX (Non-Small Cell Lung Cancer)): 12.77% | Growth Percent (HCC-2998 (Colon Cancer)): 13.50% | Growth Percent (HCT-15 (Colon Cancer)): 8.53% | Growth Percent (HCT-116 (Colon Cancer)): −0.40% | Growth Percent (HL-60(TB) (Leukemia)): 9.30% | Growth Percent (HOP-62 (Non-Small Cell Lung Cancer)): 50.48% | Growth Percent (HOP-92 (Non-Small Cell Lung Cancer)): −22.43% | Growth Percent (HS 578T (Breast Cancer)): 22.83% | Growth Percent (HT29 (Colon Cancer)): 20.44% | Growth Percent (IGROV1 (Ovarian Cancer)): 38.95% | Growth Percent (KM12 (Colon Cancer)): 8.83% | Growth Percent (LOX IMVI (Melanoma)): 5.24% | Growth Percent (M14 (Melanoma)): 35.38% | Growth Percent (MALME-3M (Melanoma)): 12.24% | Growth Percent (MCF7 (Breast Cancer)): 4.01% | Growth Percent (MDA-MB-231/ATCC (Breast Cancer)): 8.70% | Growth Percent (MDA-MB-435 (Melanoma)): 24.66% | Growth Percent (MDA-MB-468 (Breast Cancer)): −18.75% | Growth Percent (MOLT-4 (Leukemia)): 12.26% | Growth Percent, Mean (Mean over the cell panel): 13.53% | Growth Percent (NCI-H23 (Non-Small Cell Lung Cancer)): −6.46% | Growth Percent (NCI-H322M (Non-Small Cell Lung Cancer)): 18.15% | Growth Percent (NCI-H460 (Non-Small Cell Lung Cancer)): 6.25% | Growth Percent (NCI-H522 (Non-Small Cell Lung Cancer)): −13.66% | Growth Percent (NCI/ADR-RES (Ovarian Cancer)): 8.38% | Growth Percent (OVCAR-3 (Ovarian Cancer)): 1.24% | Growth Percent (OVCAR-4 (Ovarian Cancer)): 30.19% | Growth Percent (OVCAR-5 (Ovarian Cancer)): 53.43% | Growth Percent (OVCAR-8 (Ovarian Cancer)): 7.41% | Growth Percent (PC-3 (Prostate Cancer)): 3.78% | Growth Percent (RPMI-8226 (Leukemia)): −17.88% | Growth Percent, Range (Range over the cell panel): 75.86% | Growth Percent (SF-268 (CNS Cancer)): 26.01% | Growth Percent (SF-295 (CNS Cancer)): 12.82% | Growth Percent (SF-539 (CNS Cancer)): 34.37% | Growth Percent (SK-MEL-2 (Melanoma)): 1.95% | Growth Percent (SK-MEL-28 (Melanoma)): 31.16% | Growth Percent (SK-OV-3 (Ovarian Cancer)): 20.62% | Growth Percent (SN12C (Renal Cancer)): 6.24% | Growth Percent (SNB-19 (CNS Cancer)): 19.21% | Growth Percent (SNB-75 (CNS Cancer)): 47.69% | Growth Percent (SR (Leukemia)): 25.07% | Growth Percent (SW-620 (Colon Cancer)): 13.94% | Growth Percent (T-47D (Breast Cancer)): −0.38% | Growth Percent (TK-10 (Renal Cancer)): 0.36% | Growth Percent (U251 (CNS Cancer)): 0.82% | Growth Percent (UACC-62 (Melanoma)): 19.68% | Growth Percent (UACC-257 (Melanoma)): 2.35% | Growth Percent (UO-31 (Renal Cancer)): −6.34%
